This note sets out measurements from PubChem BioAssay AID1259407 (Chemical Carcinogenesis Research Information System (CCRIS), 2018).

The subject of this data set is CCRIS mutagenicity, Ames/micronucleus/aberration tests. As to the kind of experiment: CCRIS mutagenicity studies.
The mark [1] stands for this setting: Test System: AMES SALMONELLA TYPHIMURIUM, Strain/Indicator: TA98, Metabolic Activation: HAMSTER, LIVER, S-9, AROCLOR 1254 (10%), Method: PREINCUBATION
The mark [2] stands for this setting: Test System: AMES SALMONELLA TYPHIMURIUM, Strain/Indicator: TA98, Metabolic Activation: NONE, Method: PREINCUBATION
The mark [3] stands for this setting: Test System: AMES SALMONELLA TYPHIMURIUM, Strain/Indicator: TA98, Metabolic Activation: RAT, LIVER, S-9, AROCLOR 1254 (10%), Method: PREINCUBATION
Where [4] appears, read: Test System: AMES SALMONELLA TYPHIMURIUM, Strain/Indicator: TA100, Metabolic Activation: HAMSTER, LIVER, S-9, AROCLOR 1254 (10%), Method: PREINCUBATION
Where [5] appears, read: Test System: AMES SALMONELLA TYPHIMURIUM, Strain/Indicator: TA100, Metabolic Activation: NONE, Method: PREINCUBATION
[6] abbreviates: Test System: AMES SALMONELLA TYPHIMURIUM, Strain/Indicator: TA100, Metabolic Activation: RAT, LIVER, S-9, AROCLOR 1254 (10%), Method: PREINCUBATION
The mark [7] stands for this setting: Test System: AMES SALMONELLA TYPHIMURIUM, Strain/Indicator: TA100, Metabolic Activation: RAT, LIVER, S-9, AROCLOR 1254, Method: PREINCUBATION
The mark [8] stands for this setting: Test System: AMES SALMONELLA TYPHIMURIUM, Strain/Indicator: TA1535, Metabolic Activation: NONE, Method: PREINCUBATION
Setting [9] is: Test System: AMES SALMONELLA TYPHIMURIUM, Strain/Indicator: TA97, Metabolic Activation: NONE, Method: PREINCUBATION

The source made the active and inactive calls. No rule for the calls is given here.

In the case of `C=CC1CC=CCC1` (stereo unspecified), the mutagenic call is, setting by setting: under setting [1], “inactive; negative”; (Test System: AMES SALMONELLA TYPHIMURIUM, Strain/Indicator: TA98, Metabolic Activation: HAMSTER, LIVER, S-9, AROCLOR 1254, Method: PREINCUBATION) “inactive; negative”; under setting [2], “inactive; negative”; under setting [3], “inactive; negative”; (Test System: AMES SALMONELLA TYPHIMURIUM, Strain/Indicator: TA98, Metabolic Activation: RAT, LIVER, S-9, AROCLOR 1254, Method: PREINCUBATION) “inactive; negative”; under setting [4], “inactive; negative”. The mutagenic call is “inactive; negative” (Test System: AMES SALMONELLA TYPHIMURIUM, Strain/Indicator: TA100, Metabolic Activation: HAMSTER, LIVER, S-9, AROCLOR 1254, Method: PREINCUBATION); “inactive; negative” under setting [5]; “inactive; negative” under setting [6]; “inactive; negative” under setting [7]; “inactive; negative” (Test System: AMES SALMONELLA TYPHIMURIUM, Strain/Indicator: TA1535, Metabolic Activation: HAMSTER, LIVER, S-9, AROCLOR 1254 (10%), Method: PREINCUBATION); “inactive; negative” (Test System: AMES SALMONELLA TYPHIMURIUM, Strain/Indicator: TA1535, Metabolic Activation: HAMSTER, LIVER, S-9, AROCLOR 1254, Method: PREINCUBATION). For the same compound, the mutagenic call under setting [8] is “inactive; negative”; the mutagenic call (Test System: AMES SALMONELLA TYPHIMURIUM, Strain/Indicator: TA1535, Metabolic Activation: RAT, LIVER, S-9, AROCLOR 1254 (10%), Method: PREINCUBATION) was “inactive; negative”; the mutagenic call (Test System: AMES SALMONELLA TYPHIMURIUM, Strain/Indicator: TA1535, Metabolic Activation: RAT, LIVER, S-9, AROCLOR 1254, Method: PREINCUBATION) is “inactive; negative”; the mutagenic call (Test System: AMES SALMONELLA TYPHIMURIUM, Strain/Indicator: TA1537, Metabolic Activation: HAMSTER, LIVER, S-9, AROCLOR 1254 (10%), Method: PREINCUBATION) was “inactive; negative”; the mutagenic call (Test System: AMES SALMONELLA TYPHIMURIUM, Strain/Indicator: TA1537, Metabolic Activation: HAMSTER, LIVER, S-9, AROCLOR 1254, Method: PREINCUBATION) was “inactive; negative”; the mutagenic call (Test System: AMES SALMONELLA TYPHIMURIUM, Strain/Indicator: TA1537, Metabolic Activation: NONE, Method: PREINCUBATION) was “inactive; negative”. In addition, the mutagenic call by setting is: (Test System: AMES SALMONELLA TYPHIMURIUM, Strain/Indicator: TA1537, Metabolic Activation: RAT, LIVER, S-9, AROCLOR 1254 (10%), Method: PREINCUBATION) “inactive; negative”; (Test System: AMES SALMONELLA TYPHIMURIUM, Strain/Indicator: TA1537, Metabolic Activation: RAT, LIVER, S-9, AROCLOR 1254, Method: PREINCUBATION) “inactive; negative”.

With `Oc1cc(O)cc(O)c1`, the mutagenic call is, setting by setting: under setting [9], “inactive; negative”; (Test System: AMES SALMONELLA TYPHIMURIUM, Strain/Indicator: TA97, Metabolic Activation: RAT, LIVER, S-9, PHENOBARBITAL, Method: PREINCUBATION) “inactive; negative”; (Test System: AMES SALMONELLA TYPHIMURIUM, Strain/Indicator: TA98, Metabolic Activation: NONE) “inactive; negative”; under setting [2], “inactive; negative”; (Test System: AMES SALMONELLA TYPHIMURIUM, Strain/Indicator: TA98, Metabolic Activation: RAT, LIVER, S-9, PHENOBARBITAL, Method: PREINCUBATION) “inactive; negative”; (Test System: AMES SALMONELLA TYPHIMURIUM, Strain/Indicator: TA98, Metabolic Activation: S-9) “inactive; negative”. In addition, the mutagenic call was “inactive; negative” under setting [5] and “inactive; negative” (Test System: AMES SALMONELLA TYPHIMURIUM, Strain/Indicator: TA100, Metabolic Activation: RAT, LIVER, S-9, PHENOBARBITAL, Method: PREINCUBATION).

Turning to `Nc1ccc(/C=C/C(=O)O)cc1`, the mutagenic call (Test System: AMES SALMONELLA TYPHIMURIUM, Strain/Indicator: TA98, Metabolic Activation: NONE, Method: STANDARD PLATE) was “inactive; negative”; the mutagenic call (Test System: AMES SALMONELLA TYPHIMURIUM, Strain/Indicator: TA98, Metabolic Activation: RAT, LIVER, S-9, AROCLOR 1254, Method: STANDARD PLATE) is “inactive; negative”; the mutagenic call under setting [5] was “inactive; negative”; the mutagenic call (Test System: AMES SALMONELLA TYPHIMURIUM, Strain/Indicator: TA100, Metabolic Activation: NONE, Method: STANDARD PLATE) is “inactive; negative”; the mutagenic call under setting [7] is “inactive; negative”; the mutagenic call (Test System: AMES SALMONELLA TYPHIMURIUM, Strain/Indicator: TA100, Metabolic Activation: RAT, LIVER, S-9, AROCLOR 1254, Method: STANDARD PLATE) is “inactive; negative”.

Turning to `CCCCCc1cc(O)cc(O)c1`, the mutagenic call (Test System: AMES SALMONELLA TYPHIMURIUM, Strain/Indicator: TA97, Metabolic Activation: HAMSTER, LIVER, S-9, AROCLOR 1254 (10 OR 30%), Method: PREINCUBATION) is “inactive; negative”; the mutagenic call under setting [9] was “inactive; negative”; the mutagenic call (Test System: AMES SALMONELLA TYPHIMURIUM, Strain/Indicator: TA97, Metabolic Activation: RAT, LIVER, S-9, AROCLOR 1254 (10 OR 30%), Method: PREINCUBATION) was “inactive; negative”; the mutagenic call under setting [1] is “inactive; negative”; the mutagenic call (Test System: AMES SALMONELLA TYPHIMURIUM, Strain/Indicator: TA98, Metabolic Activation: HAMSTER, LIVER, S-9, AROCLOR 1254 (30%), Method: PREINCUBATION) is “inactive; negative”; the mutagenic call under setting [2] is “inactive; negative”. In addition, the mutagenic call under setting [3] was “inactive; negative”; the mutagenic call (Test System: AMES SALMONELLA TYPHIMURIUM, Strain/Indicator: TA98, Metabolic Activation: RAT, LIVER, S-9, AROCLOR 1254 (30%), Method: PREINCUBATION) was “inactive; negative”; the mutagenic call under setting [4] is “inactive; negative”; the mutagenic call (Test System: AMES SALMONELLA TYPHIMURIUM, Strain/Indicator: TA100, Metabolic Activation: HAMSTER, LIVER, S-9, AROCLOR 1254 (30%), Method: PREINCUBATION) is “inactive; negative”; the mutagenic call under setting [5] is “inactive; negative”; the mutagenic call under setting [6] is “inactive; negative”. Also, the mutagenic call is, setting by setting: (Test System: AMES SALMONELLA TYPHIMURIUM, Strain/Indicator: TA100, Metabolic Activation: RAT, LIVER, S-9, AROCLOR 1254 (30%), Method: PREINCUBATION) “inactive; negative”; (Test System: AMES SALMONELLA TYPHIMURIUM, Strain/Indicator: TA1535, Metabolic Activation: HAMSTER, LIVER, S-9, AROCLOR 1254 (10 OR 30%), Method: PREINCUBATION) “inactive; negative”; under setting [8], “inactive; negative”; (Test System: AMES SALMONELLA TYPHIMURIUM, Strain/Indicator: TA1535, Metabolic Activation: RAT, LIVER, S-9, AROCLOR 1254 (10 OR 30%), Method: PREINCUBATION) “inactive; negative”.

For `CCCCC(C)=O`, the mutagenic call reads like this: (Test System: CHINESE HAMSTER V-79, Strain/Indicator: V-79 (HPRT)/6-THIOGUANINE, Metabolic Activation: NONE, Method: STANDARD PLATE) “inactive; negative”; (Test System: CHINESE HAMSTER V-79, Strain/Indicator: V-79 (HPRT)/6-THIOGUANINE, Metabolic Activation: RAT LIVER S-9, Method: STANDARD PLATE) “inactive; negative”.

Turning to `C/C=C1/C[C@@H](C)[C@@](C)(O)C(=O)OCC2=CCN3CC[C@@H](OC1=O)[C@@H]23`, the mutagenic call by setting is: (Test System: AMES SALMONELLA TYPHIMURIUM, Strain/Indicator: TA100, Metabolic Activation: HAMSTER, LIVER, S-9, PCB, Method: PREINCUBATION) “inactive; negative”; (Test System: AMES SALMONELLA TYPHIMURIUM, Strain/Indicator: TA100, Metabolic Activation: RAT, LIVER, S-9, PCB, Method: PREINCUBATION) “inactive; negative”; (Test System: AMES SALMONELLA TYPHIMURIUM, Strain/Indicator: TA100, Metabolic Activation: RAT, LIVER, S-9, SODIUM PHENOBARBITAL AND BETA-NAPHTHOFLAVONE, Method: PREINCUBATION) “inactive; negative”; (Test System: UDS RAT HEPATOCYTES, Strain/Indicator: THY INCORP, Metabolic Activation: NONE, Method: AUTORADIOGRAPHY) “active; positive”.
